Where a name gives a salt, the structure may show the parent alone. Read-outs that look alike come from different tables or passages of the source.
Columns and labels:
22Rv1 cells = test: Cell-based assay: anti-proliferative activity, Cell Counting Kit-8, 72 hours (22Rv1); details: Homo sapiens, 22Rv1, 72 h
MELK = MELK (Homo sapiens, UniProt Q14680); test: Kinase assay: MELK activity, phosphorylation of FITC-labeled histone H3 peptide measured by IMAP fluorescence polarization; type: biochemical; details: read-out: IC50 (μM) (kinase assay)
Chain of MELK (Q14680 whole entry, looked up): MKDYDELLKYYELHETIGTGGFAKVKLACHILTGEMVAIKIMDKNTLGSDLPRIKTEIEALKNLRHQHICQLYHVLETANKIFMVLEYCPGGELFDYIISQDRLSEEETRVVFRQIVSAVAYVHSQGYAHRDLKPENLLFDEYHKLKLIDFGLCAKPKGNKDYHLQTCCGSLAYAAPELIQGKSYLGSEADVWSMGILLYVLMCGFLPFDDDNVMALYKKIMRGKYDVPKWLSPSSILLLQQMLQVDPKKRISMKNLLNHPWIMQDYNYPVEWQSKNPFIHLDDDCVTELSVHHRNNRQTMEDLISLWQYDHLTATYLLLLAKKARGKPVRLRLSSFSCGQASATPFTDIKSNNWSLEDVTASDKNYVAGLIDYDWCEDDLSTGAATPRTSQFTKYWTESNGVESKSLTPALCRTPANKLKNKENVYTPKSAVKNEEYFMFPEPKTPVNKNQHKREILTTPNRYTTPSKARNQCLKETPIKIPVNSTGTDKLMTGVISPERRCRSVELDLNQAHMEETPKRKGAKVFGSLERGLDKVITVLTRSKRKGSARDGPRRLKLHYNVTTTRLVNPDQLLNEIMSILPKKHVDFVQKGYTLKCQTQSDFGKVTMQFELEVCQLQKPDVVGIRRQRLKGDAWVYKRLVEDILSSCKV
How it was run: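 A FITC-labelled histone H3 peptide served as substrate, with compounds serially diluted to 1% DMSO final. Reactions were stopped with three volumes of IMAP progressive binding solution. After 0.5 h at room temperature, fluorescence polarization was read.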

DU4475 cells = test: Cell-based assay: anti-proliferative activity, Cell Counting Kit-8, 72 hours (DU4475); details: Homo sapiens, DU-4475, 72 h
T47D cells = test: Cell-based assay: anti-proliferative activity, Cell Counting Kit-8, 72 hours (T47D); details: Homo sapiens, T47D, 72 h
How it was run: (§1)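 T47D, A549 and BT-549 cells, with MELK-negative HT-1197 as control (MELK status checked by western blot), seeded at 2,000–3,000 cells/well. Growth measured by CCK-8 72 hours after inhibitor exposure; IC50 values calculated.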

A549 cells = test: Cell-based assay: anti-proliferative activity, Cell Counting Kit-8, 72 hours (A549); details: Homo sapiens, A549, 72 h, 72 hours
How it was run: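 A549 cells seeded in 96-well plates and exposed to candidate inhibitors for 72 hours. Growth measured with Cell Counting Kit-8; IC50 values calculated from the dose response.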

HT-1197 cells = test: Cell-based assay: anti-proliferative activity, Cell Counting Kit-8, 72 hours (HT-1197, negative control without MELK expression); details: Homo sapiens, HT1197, 72 h, HT1197 cells (negative control, no MELK expression), 72 hours
How it was run: as §1

[1] = MELK kinase assay, IMAP fluorescence polarization, 50 micro-M ATP

SMILES	IC50 (22Rv1 cells) [µM]	IC50 (MELK; [1]) [µM]	IC50 (DU4475 cells) [µM]	IC50 (T47D cells) [µM]	IC50 (A549 cells) [µM]	IC50 (HT-1197 cells) [µM]	IC50 (MELK) [µM]
CC(=O)c1cnc2ccc(-c3cc(F)c(O)c(Cl)c3)cc2c1Nc1cnn(C2CCN(C)C2)c1 (stereo not drawn) [Example 813, 1-(6-(3-chloro-5-fluoro-4-hydroxyphenyl)-4-((1-(1-methylpyrrolidin-3-yl)-1H-pyrazol-4-yl)amino)quinolin-3-yl)ethanone dihydrochloride]	0.11	0.0021	0.054	0.07	0.25	0.75	
CNC1CCN(c2ccc(Nc3c(C(C)=O)cnc4ccc(-c5cc(F)c(O)c(Cl)c5)cc34)cn2)C1 (stereo not drawn) [Example 785, 1-(6-(3-chloro-5-fluoro-4-hydroxyphenyl)-4-((6-(3-(methylamino)pyrrolidin-1-yl)pyridin-3-yl)amino)quinolin-3-yl)ethanone trihydrochloride]	0.076		0.074	0.035	0.094	1.3	0.0056
CC(=O)c1cnc2ccc(-c3cc(F)c(O)c(Cl)c3)cc2c1N[C@H]1CCC[C@H](CCN(C)C)C1 [Example 862, 1-(6-(3-chloro-5-fluoro-4-hydroxyphenyl)-4-(((1S,3R)-3-(2-(dimethylamino)ethyl)cyclohexyl)amino)quinolin-3-yl)ethanone hydrochloride]	0.2	0.0067	0.2	0.26	0.29	1.1	
CC(=O)c1cnc2ccc(-c3cc(Cl)c(O)c(Cl)c3)cc2c1Nc1cnn(C2CCN(C)C2)c1 (stereo not drawn) [Example 814, 1-(6-(3,5-dichloro-4-hydroxyphenyl)-4-((1-(1-methylpyrrolidin-3-yl)-1H-pyrazol-4-yl)amino)quinolin-3-yl)ethanone dihydrochloride]	0.13	0.0009	0.057	0.14	0.29	0.78	
COc1cc(-c2ccc3ncc(C(C)=O)c(N[C@H]4CC[C@H](CN5CCCC(N)C5)CC4)c3c2)cc(Cl)c1O (stereo partly drawn) [Example 809, 1-(4-(1R,4R)-4-((3-aminopiperidin-1-yl)methyl)cyclohexylamino)-6-(3-chloro-4-hydroxy-5-methoxyphenyl)quinolin-3-yl)ethanone hydrochloride]	2.6		10	4.6	3.1	10	0.016
CC(=O)c1cnc2ccc(-c3cc(Cl)c(O)c(Cl)c3)cc2c1N[C@H]1C[C@H](CN(C)C)C1 [Example 784, 1-(6-(3,5-dichloro-4-hydroxyphenyl)-4-((1r,3r)-3-((dimethylamino)methyl)cyclobutylamino)quinolin-3-yl)ethanone]	0.95		0.2	0.6	0.74	3.2	0.0031
CCN(C)C[C@H]1CC[C@H](Nc2c(C(C)=O)cnc3ccc(-c4cc(F)c(O)c(Cl)c4)cc23)CC1 [Example 845]	0.11	0.00204	0.069	0.063	0.14	1.4	
CC(=O)c1cnc2ccc(-c3cc(F)c(O)c(Cl)c3)cc2c1NC1CCCN(CCN(C)C)C1 (stereo not drawn) [Example 851, 1-(6-(3-chloro-5-fluoro-4-hydroxyphenyl)-4-(1-(2-(dimethylamino)ethyl)piperidin-3-ylamino)quinolin-3-yl)ethanone]	1.5	0.04	0.65	1.6	1.6	6	
CCC(=O)c1cnc2ccc(-c3cc(Cl)c(O)c(OC)c3)cc2c1Nc1ccc(CN(C)C)cc1 [Example 769, 1-(6-(3-chloro-4-hydroxy-5-methoxyphenyl)-4-(4-((dimethylamino)methyl)phenylamino)quinolin-3-yl)propan-1-one]	0.79		0.14	0.12	0.48	2.8	0.0049
CCN(CC)C[C@H]1CC[C@H](Nc2c(C(C)=O)cnc3ccc(-c4cc(Cl)c(O)c(Cl)c4)cc23)CC1 [Example 790]	0.14		0.098	0.1	0.14	4.2	0.0018
CCC(=O)c1cnc2ccc(-c3cc(F)c(O)c(Cl)c3)cc2c1Nc1ccc(N2CCCC(N)C2)nc1 (stereo not drawn) [Example 825, 1-(4-(6-(3-aminopiperidin-1-yl)pyridin-3-ylamino)-6-(3-chloro-5-fluoro-4-hydroxyphenyl)quinolin-3-yl)propan-1-one]	0.016	0.0018	0.018	0.01	0.017	0.069	
CNC1CCN(c2ccc(Nc3c(C(=O)C4CC4)cnc4ccc(-c5cc(F)c(O)c(Cl)c5)cc34)cn2)C1 (stereo not drawn) [Example 789, (6-(3-chloro-5-fluoro-4-hydroxyphenyl)-4-((6-(3-(methylamino)pyrrolidin-1-yl)pyridin-3-yl)amino)quinolin-3-yl)(cyclopropyl)methanone trihydrochloride]	0.077		0.053	0.039	0.076	0.8	0.0028
CC(=O)c1cnc2ccc(-c3cc(F)c(O)c(Cl)c3)cc2c1N[C@H]1CC[C@H](CN2CCC[C@H]2CO)CC1 [Example 844, 1-(6-(3-chloro-5-fluoro-4-hydroxyphenyl)-4-((1S,4r)-4-(((S)-2-(hydroxymethyl)pyrrolidin-1-yl)methyl)cyclohexylamino)quinolin-3-yl)ethanone]	0.18	0.0046	0.092	0.067	0.18	3.3	
CC(=O)c1cnc2ccc(-c3cc(F)c(O)c(Cl)c3)cc2c1N[C@H]1CC[C@H](CN2CCN(C)CC2)CC1 [Example 781, 1-(6-(3-chloro-5-fluoro-4-hydroxyphenyl)-4-(1R,4R)-4-((4-methylpiperazin-1-yl)methyl)cyclohexylamino)quinolin-3-yl)ethanone hydrochloride]	0.34		0.19	0.1	0.2	3.3	0.013
CC(=O)c1cnc2ccc(-c3cc(F)c(O)c(Cl)c3)cc2c1N[C@H]1CCC[C@@H](CN2CCN(C)CC2)C1 [Example 832, 1-(6-(3-chloro-5-fluoro-4-hydroxyphenyl)-4-((1S,3R)-3-((4-methylpiperazin-1-yl)methyl)cyclohexylamino)quinolin-3-yl)ethanone hydrochloride]	0.44	0.009	0.24	0.17	0.26	0.79	
CCC(=O)c1cnc2ccc(-c3cc(Cl)c(O)c(Cl)c3)cc2c1Nc1ccc(CN(C)C)cc1 [Example 771, 1-(6-(3,5-dichloro-4-hydroxyphenyl)-4-((4-((dimethylamino)methyl)phenyl)amino)quinolin-3-yl)propan-1-one]	0.16		0.045	0.072	0.095	0.72	0.0054
